Data reported in patent publication US20080293801A1, “Solid Amorphous Dispersions of An Mtp Inhibitor For Treatment of Obesity” (PFizer Inc., priority 2003, published 2008).
Where “and” joins values, the source holds several entries; their conditions need not be identical. Equal entries are not always repeated. Marks after values point to notes of the source that are not given here.

Legend:
[1] = In vitro dissolution test in model fasted duodenal solution (MFDS); assay type: physicochemical; conditions: MTC 500 μg/mL; for AUC / Drug A Concentration: MFDS pH 6.5, 37° C.
Procedure: Samples of Example 1 and Control C1 were added to respective microcentrifuge tubes in duplicate. For these tests, a sufficient amount of material was added so that the maximum theoretical concentration of drug (MTC) would have been 500 μg/mL, if all of the drug had dissolved. The tubes were placed in a 37° C. temperature-controlled chamber, and 1.8 mL model fasted duodenal solution, or “MFDS” was added to each respective tube. The MFDS consisted of 1.8 mL PBS containing 0.5 wt % sodium taurocholic acid and 1-palmitoyl-2-oleyl-sn-glycero-3-phosphocholine (NaTC/POPC, with a 4/1 weight ratio) at pH 6.5 and adjusted to 290 mOsm/kg with NaCl:KCl (20.4:1 wt/wt). The samples were quickly mixed using a vortex mixer for about 60 seconds. The samples were centrifuged at 13,000 G at 37° C. for 1 minute. The resulting supernatant solution was then sampled and diluted 1:6 (by volume) with methanol and then analyzed by high-performance liquid chromatography (HPLC) using a Phenomenex Luna, phenyl-hexyl 5 μm column with a mobile phase consisting of 70:30 (vol:vol) acetonitrile: water at a flow rate of 1 ml/min. Drug concentration was measured using UV absorbance at 241 nm. The contents of each respective tube were mixed on the vortex mixer and allowed to stand undisturbed at 37° C. until the next sample was taken. […]
The concentrations of drug obtained in these samples were used to determine the maximum dissolved drug concentration at 90 minutes (MDC90) and the area under the dissolved drug concentration versus time curve (AUC90) during the initial ninety minutes.
For each test, dispersions were added to microcentrifuge tubes in duplicate. For these tests, a sufficient amount of material was added so that the maximum theoretical concentration (MTC) would have been 500 μg/mL, if all of the drug had dissolved. The tubes were placed in a 37° C. temperature-controlled chamber, and 1.8 mL PBS containing 0.5 wt % sodium taurocholic acid and 1-palmitoyl-2-oleyl-sn-glycero-3-phosphocholine (NaTC/POPC, with a 4/1 weight ratio) at pH 6.5 and 290 mOsm/kg (model fasted duodenal solution, “MFDS”) was added to each respective tube. The samples were quickly mixed using a vortex mixer for about 60 seconds. The samples were centrifuged at 13,000 G at 37° C. for 1 minute. The resulting supernatant solution was then sampled and diluted 1:6 (by volume) with methanol and then analyzed by HPLC as described above. The contents of each respective tube were mixed on the vortex mixer and allowed to stand undisturbed at 37° C. until the next sample was taken. […]
The concentrations of drug obtained in these samples were used to determine the MDC90 and the AUC90 during the initial ninety minutes.

[2] = Solubility of the lowest energy crystalline form of Drug A in water; assay type: physicochemical; conditions: lowest energy crystalline form presently known
Procedure: Drug A is an MTP inhibitor intended for the treatment of obesity. The solubility of the lowest energy crystalline form of Drug A presently known in water is less than 0.6 μg/ml. Drug A is nonionizable, and has a cLog P of about 7.8. These characteristics contribute to its water insoluble nature.

AUC90 ([1]; area under dissolved drug concentration vs time curve, initial 90 minutes, MFDS)	MDC90 ([1]; maximum dissolved drug concentration, initial 90 minutes, MFDS)	AUC ([1]; time 0 min) [µg·min/mL]	Drug A Concentration ([1]; time 0 min) [µg/mL]	AUC ([1]; time 4 min) [µg·min/mL]	Drug A Concentration ([1]; time 4 min)	Drug A Concentration ([1]; time 10 min)	Drug A Concentration ([1]; time 20 min)	AUC ([1]; time 40 min)	Drug A Concentration ([1]; time 40 min)	AUC ([1]; time 90 min)	AUC ([1]; time 1200 min) [µg·min/mL]	Drug A Concentration ([1]; time 1200 min) [µg/mL]	solubility [2] [µg/mL]	Structure (SMILES)
170 µg·min/mL and 200 µg·min/mL	3.1 µg/mL and 3 µg/mL	0	0	0	0.0* μg/mL and 0 μg/mL	2.6 µg/mL and 3 µg/mL	3.1 µg/mL and 3 µg/mL	93 µg·min/mL and 100 µg·min/mL	2.6 µg/mL and 3 µg/mL	170 µg·min/mL and 200 µg·min/mL	800	0.8	–	CN(Cc1ccccc1)C(=O)[C@@H](NC(=O)c1cc2cc(NC(=O)c3ccccc3-c3ccc(C(F)(F)F)cc3)ccc2n1C)c1ccccc1 [Example C1]
–	–	–	–	–	–	–	–	–	–	–	–	–	< 0.6	CN(Cc1ccccc1)C(=O)[C@@H](NC(=O)c1cc2cc(NC(=O)c3ccccc3-c3ccc(C(F)(F)F)cc3)ccc2n1C)c1ccccc1 [Drug A, (S)—N-{2-[benzyl(methyl)amino]-2-oxo-1-phenylethyl}-1-methyl-5-[4′-(trifluoromethyl)[1,1′-biphenyl]-2-carboxamido]-1H-indole-2-carboxamide]
